Experimental data from the supplement of paper PMC11451515.

Tested on: NOMO1
Assay: cell viability relative to DMSO control; higher = less cytotoxic
Details: 48 h
In short: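 Library compounds in DMSO were pin-dosed into 1536-well plates (5 μl) holding NOMO1 or SEM (500 cells/well) or P12-Ichikawa (1000 cells/well) leukemia cells, across an 11-point threefold series of 47 μM to 0.79 nM. Each cell line had been adapted for at least four passages in each medium. CellTiter-Glo One luminescence was read after 48 h at 37°C. Viability is the per-plate percentage relative to DMSO wells, with cell-free wells as background.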

[1] = HPLM + 10% dialyzed FBS, 0.000781 µM
[2] = HPLM + 10% dialyzed FBS, 0.00234 µM
[3] = HPLM + 10% dialyzed FBS, 0.00702 µM
[4] = HPLM + 10% dialyzed FBS, 0.0211 µM
[5] = HPLM + 10% dialyzed FBS, 0.0632 µM
[6] = HPLM + 10% dialyzed FBS, 0.19 µM
[7] = HPLM + 10% dialyzed FBS, 0.569 µM
[8] = HPLM + 10% dialyzed FBS, 1.71 µM
[9] = HPLM + 10% dialyzed FBS, 5.12 µM
[10] = HPLM + 10% dialyzed FBS, 15.4 µM
[11] = HPLM + 10% dialyzed FBS, 46.1 µM
[12] = RPMI 5 mM glucose + 10% FBS, 0.000781 µM
[13] = RPMI 5 mM glucose + 10% FBS, 0.00234 µM
[14] = RPMI 5 mM glucose + 10% FBS, 0.00702 µM
[15] = RPMI 5 mM glucose + 10% FBS, 0.0211 µM
[16] = RPMI 5 mM glucose + 10% FBS, 0.0632 µM
[17] = RPMI 5 mM glucose + 10% FBS, 0.19 µM
[18] = RPMI 5 mM glucose + 10% FBS, 0.569 µM
[19] = RPMI 5 mM glucose + 10% FBS, 1.71 µM
[20] = RPMI 5 mM glucose + 10% FBS, 5.12 µM
[21] = RPMI 5 mM glucose + 10% FBS, 15.4 µM
[22] = RPMI 5 mM glucose + 10% FBS, 46.1 µM
[23] = RPMI 5 mM glucose + 10% dialyzed FBS, 0.000781 µM
[24] = RPMI 5 mM glucose + 10% dialyzed FBS, 0.00234 µM
[25] = RPMI 5 mM glucose + 10% dialyzed FBS, 0.00702 µM
[26] = RPMI 5 mM glucose + 10% dialyzed FBS, 0.0211 µM
[27] = RPMI 5 mM glucose + 10% dialyzed FBS, 0.0632 µM
[28] = RPMI 5 mM glucose + 10% dialyzed FBS, 0.19 µM
[29] = RPMI 5 mM glucose + 10% dialyzed FBS, 0.569 µM
[30] = RPMI 5 mM glucose + 10% dialyzed FBS, 1.71 µM
[31] = RPMI 5 mM glucose + 10% dialyzed FBS, 5.12 µM
[32] = RPMI 5 mM glucose + 10% dialyzed FBS, 15.4 µM
[33] = RPMI 5 mM glucose + 10% dialyzed FBS, 46.1 µM

OC[C@H]1O[C@H]([C@H](O)[C@@H]1O)N2\C=C/C(=O)NC2=O
cell viability [1]: 111% | cell viability [2]: 127% | cell viability [3]: 105% | cell viability [4]: 114% | cell viability [5]: 122% | cell viability [6]: 107% | cell viability [7]: 103% | cell viability [8]: 119% | cell viability [9]: 118% | cell viability [10]: 95.4% | cell viability [11]: 98.4% | cell viability [12]: 89.4% | cell viability [13]: 87.3% | cell viability [14]: 95.6% | cell viability [15]: 85.4% | cell viability [16]: 94.7% | cell viability [17]: 96.5% | cell viability [18]: 94.6% | cell viability [19]: 91.4% | cell viability [20]: 79.4% | cell viability [21]: 91.6% | cell viability [22]: 80.8% | cell viability [23]: 93.9% | cell viability [24]: 85.1% | cell viability [25]: 99.8% | cell viability [26]: 99.3% | cell viability [27]: 95.7% | cell viability [28]: 103% | cell viability [29]: 104% | cell viability [30]: 93.7% | cell viability [31]: 96% | cell viability [32]: 90.5% | cell viability [33]: 87.8%

CC(C)(C)OC(=O)N[C@H]1CCCCC/C=C\[C@@H]2C[C@@]2(C(=O)N[S+](=O)([O-])C2CC2)NC(=O)[C@@H]2C[C@@H](OC(=O)N3Cc4cccc(F)c4C3)CN2C1=O
cell viability [1]: 125% | cell viability [2]: 115% | cell viability [3]: 124% | cell viability [4]: 114% | cell viability [5]: 108% | cell viability [6]: 121% | cell viability [7]: 103% | cell viability [8]: 120% | cell viability [9]: 114% | cell viability [10]: 111% | cell viability [11]: 111% | cell viability [12]: 96.8% | cell viability [13]: 93.3% | cell viability [14]: 97.2% | cell viability [15]: 100% | cell viability [16]: 114% | cell viability [17]: 106% | cell viability [18]: 113% | cell viability [19]: 99.9% | cell viability [20]: 94% | cell viability [21]: 101% | cell viability [22]: 102% | cell viability [23]: 97.4% | cell viability [24]: 92.7% | cell viability [25]: 111% | cell viability [26]: 98.5% | cell viability [27]: 110% | cell viability [28]: 100% | cell viability [29]: 123% | cell viability [30]: 109% | cell viability [31]: 104% | cell viability [32]: 90.1% | cell viability [33]: 103%

Clc1ccc(-c2nc3sccn3c2/C=N/OCc2ccc(Cl)c(Cl)c2)cc1
cell viability [1]: 122% | cell viability [2]: 113% | cell viability [3]: 128% | cell viability [4]: 126% | cell viability [5]: 125% | cell viability [6]: 110% | cell viability [7]: 109% | cell viability [8]: 108% | cell viability [9]: 99.6% | cell viability [10]: 101% | cell viability [11]: 122% | cell viability [12]: 121% | cell viability [13]: 114% | cell viability [14]: 117% | cell viability [15]: 120% | cell viability [16]: 112% | cell viability [17]: 109% | cell viability [18]: 101% | cell viability [19]: 104% | cell viability [20]: 117% | cell viability [21]: 103% | cell viability [22]: 108% | cell viability [23]: 101% | cell viability [24]: 110% | cell viability [25]: 123% | cell viability [26]: 125% | cell viability [27]: 114% | cell viability [28]: 98% | cell viability [29]: 113% | cell viability [30]: 114% | cell viability [31]: 111% | cell viability [32]: 99.8% | cell viability [33]: 111%

C[C@@]12C(=O)OC(=O)[C@@]1(C)C1CCC2O1
cell viability [1]: 111% | cell viability [2]: 109% | cell viability [3]: 107% | cell viability [4]: 116% | cell viability [5]: 115% | cell viability [6]: 123% | cell viability [7]: 114% | cell viability [8]: 101% | cell viability [9]: 70.4% | cell viability [10]: 12.6% | cell viability [11]: 6.53% | cell viability [12]: 98.4% | cell viability [13]: 90.8% | cell viability [14]: 86.6% | cell viability [15]: 87.1% | cell viability [16]: 103% | cell viability [17]: 89.9% | cell viability [18]: 95.3% | cell viability [19]: 81.6% | cell viability [20]: 79.9% | cell viability [21]: 8.16% | cell viability [22]: 6.61% | cell viability [23]: 110% | cell viability [24]: 96.1% | cell viability [25]: 101% | cell viability [26]: 99.7% | cell viability [27]: 106% | cell viability [28]: 106% | cell viability [29]: 88.6% | cell viability [30]: 89.8% | cell viability [31]: 64.9% | cell viability [32]: 7.15% | cell viability [33]: 5.77%

CC[C@H](NC1=C2N=C[NH]C2=NC=N1)C/3=N/C4=C(C(=CC=C4)F)C(=O)N3C5=CC=CC=C5
cell viability [12]: 116% | cell viability [13]: 119% | cell viability [14]: 139% | cell viability [15]: 122% | cell viability [16]: 125% | cell viability [17]: 116% | cell viability [18]: 113% | cell viability [19]: 113% | cell viability [20]: 111% | cell viability [21]: 107% | cell viability [22]: 76.9% | cell viability [23]: 125% | cell viability [24]: 121% | cell viability [25]: 123% | cell viability [26]: 125% | cell viability [27]: 133% | cell viability [28]: 110% | cell viability [29]: 117% | cell viability [30]: 114% | cell viability [31]: 100% | cell viability [32]: 82.2% | cell viability [33]: 57%

O=C(Nc1cc(Cl)cc2c1[nH]c1cnccc12)c1cccnc1
cell viability [23]: 118% | cell viability [24]: 114% | cell viability [25]: 124% | cell viability [26]: 110% | cell viability [27]: 110% | cell viability [28]: 124% | cell viability [29]: 131% | cell viability [30]: 123% | cell viability [31]: 117% | cell viability [32]: 109% | cell viability [33]: 109%

O=C(O)Cn1nnc(-c2cc(N3CCC(Oc4cc(F)ccc4Br)CC3)no2)n1
cell viability [1]: 96% | cell viability [2]: 97.7% | cell viability [3]: 97.2% | cell viability [4]: 111% | cell viability [5]: 108% | cell viability [6]: 99.6% | cell viability [7]: 106% | cell viability [8]: 34.7% | cell viability [9]: 29.9% | cell viability [10]: 24.4% | cell viability [11]: 24.6% | cell viability [12]: 102% | cell viability [13]: 105% | cell viability [14]: 106% | cell viability [15]: 109% | cell viability [16]: 109% | cell viability [17]: 106% | cell viability [18]: 104% | cell viability [19]: 22.9% | cell viability [20]: 22.1% | cell viability [21]: 16% | cell viability [22]: 16.6% | cell viability [23]: 83.1% | cell viability [24]: 109% | cell viability [25]: 100% | cell viability [26]: 104% | cell viability [27]: 115% | cell viability [28]: 113% | cell viability [29]: 112% | cell viability [30]: 45.2% | cell viability [31]: 31.9% | cell viability [32]: 25.4% | cell viability [33]: 22.8%

CC(C)(C)NC(=O)Nc1cccc(Nc2ncc(F)c(NC(C)(C)CO)n2)c1
cell viability [1]: 99.9% | cell viability [2]: 115% | cell viability [3]: 133% | cell viability [4]: 140% | cell viability [5]: 112% | cell viability [6]: 137% | cell viability [7]: 122% | cell viability [8]: 130% | cell viability [9]: 127% | cell viability [10]: 111% | cell viability [11]: 108% | cell viability [12]: 123% | cell viability [13]: 115% | cell viability [14]: 127% | cell viability [15]: 112% | cell viability [16]: 135% | cell viability [17]: 112% | cell viability [18]: 120% | cell viability [19]: 133% | cell viability [20]: 111% | cell viability [21]: 69.8% | cell viability [22]: 98.4%

C[C@@H]1COCCN1c1cc(C2([S@+](C)(=N)[O-])CC2)nc(-c2ccnc3[nH]ccc23)n1
cell viability [1]: 94.9% | cell viability [2]: 116% | cell viability [3]: 119% | cell viability [4]: 121% | cell viability [5]: 127% | cell viability [6]: 120% | cell viability [7]: 91.9% | cell viability [8]: 67.7% | cell viability [9]: 34.5% | cell viability [10]: 27.6% | cell viability [11]: 24.6% | cell viability [12]: 102% | cell viability [13]: 114% | cell viability [14]: 114% | cell viability [15]: 119% | cell viability [16]: 115% | cell viability [17]: 130% | cell viability [18]: 114% | cell viability [19]: 103% | cell viability [20]: 59.4% | cell viability [21]: 24.5% | cell viability [22]: 17.9% | cell viability [23]: 97.6% | cell viability [24]: 107% | cell viability [25]: 114% | cell viability [26]: 119% | cell viability [27]: 122% | cell viability [28]: 120% | cell viability [29]: 116% | cell viability [30]: 98.2% | cell viability [31]: 39% | cell viability [32]: 22% | cell viability [33]: 22.3%
